Test results: patent publication US7923465B2, “Cannabinoid receptor ligands, pharmaceutical compositions containing them, and process for their preparation” (priority 2005, dated 2011)
Where two headings read alike, the source gives them in different places.

What was measured:
hCB2 = hCB2 (Homo sapiens, UniProt P34972); assay: In vitro binding assay using hCB2-CHO membranes, [3H]-CP-55,940 displacement (Protocol IV); set-up: expressed in transfected cells; host or cells: CHO (hCB2-CHO, generated in-house); settings: 1 h; hCB2-CHO membranes, [3H]-CP-55,940 displacement; read-out: % Displacement Protocol IV
Sequence of hCB2 (P34972 whole entry): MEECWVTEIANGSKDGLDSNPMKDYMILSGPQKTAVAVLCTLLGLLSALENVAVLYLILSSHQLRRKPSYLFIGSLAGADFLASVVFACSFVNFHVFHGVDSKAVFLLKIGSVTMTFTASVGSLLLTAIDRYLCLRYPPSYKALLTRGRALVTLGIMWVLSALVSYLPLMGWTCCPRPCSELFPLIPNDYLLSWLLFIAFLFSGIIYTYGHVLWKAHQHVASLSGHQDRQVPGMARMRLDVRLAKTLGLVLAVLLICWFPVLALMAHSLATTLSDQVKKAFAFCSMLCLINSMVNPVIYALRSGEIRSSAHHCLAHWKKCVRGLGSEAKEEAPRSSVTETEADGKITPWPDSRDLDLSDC
Method in brief: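 Displacement of [3H]-CP-55,940 (0.75 nM) from membranes of CHO cells expressing human CB2 (25-50 μg) was measured in Tris-BSA buffer pH 7.4 with 5 mM MgCl2, 1 mM EDTA, 0.1% BSA, 1 h at 30 °C. Test compounds were at 300 nM final; nonspecific binding defined with 0.5 μM CP-55,940. Values are % displacement of specific binding.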

CB1 = CB1 (Rattus norvegicus, UniProt P20272); assay: Rat CB1 receptor binding using brain membrane, [3H]SR141716A displacement (Protocol I); set-up: CB1 receptor present in a rat brain membrane preparation; from tissue; host or cells: rat brain membrane; inhibition: dose or concentration left out as unconfirmed; settings: 1 h
Sequence of CB1 (P20272 whole entry): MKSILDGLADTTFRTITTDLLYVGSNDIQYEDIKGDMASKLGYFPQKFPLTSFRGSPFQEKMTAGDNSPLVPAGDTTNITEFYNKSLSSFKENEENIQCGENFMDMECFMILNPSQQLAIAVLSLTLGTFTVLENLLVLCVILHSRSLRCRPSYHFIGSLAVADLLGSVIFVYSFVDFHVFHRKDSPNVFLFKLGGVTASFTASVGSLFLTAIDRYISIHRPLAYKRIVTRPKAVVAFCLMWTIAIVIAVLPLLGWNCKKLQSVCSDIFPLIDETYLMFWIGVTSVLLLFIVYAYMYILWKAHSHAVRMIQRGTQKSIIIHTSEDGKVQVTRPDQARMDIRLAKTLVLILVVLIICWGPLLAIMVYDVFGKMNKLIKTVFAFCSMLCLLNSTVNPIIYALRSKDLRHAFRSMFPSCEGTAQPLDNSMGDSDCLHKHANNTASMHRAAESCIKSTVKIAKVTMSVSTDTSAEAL
Method: I. In Vitro Protocol for Rat CB1 Receptor Binding Using Brain Membrane
In this assay, [^3H]SR141716A (5-(4-chlorophenyl)-1-(2,4-dichlorophenyl)-4-methyl-N-(1-piperidyl)pyrazole-3-carboxamide) was used to bind the CB1 receptor present in a rat brain membrane preparation which can be displaced by unlabeled ligands having affinity to the CB1 receptor.
The assay was performed according to the modified method of Thomas et al., 1998 (JPET 285: 285-292). The total reaction mixture ([…]) contained Tris-BSA buffer (50 mM Tris, pH 7.4 with 1.5% BSA) or unlabeled SR141716A […] or test samples […], [^3H] SR141716A (2 nM) and […] of rat brain membrane. The non-specific binding was defined by […] of SR141716A. The assay mixture was incubated at 37° C. for 1 hour. The reaction was then stopped by rapid filtration under vacuum using Whatman GF/B-96 micro filter plate. A scintillation cocktail was added and radioactive counts were measured using a Topcount beta scintillation counter.
The standard and test sample dilutions were made in an assay buffer containing either ethanol or DMSO at a final concentration of 1%.
The percent (%) displacement by a test ligand was calculated by comparing the specific bound values.

[1] = rat brain membrane, [3H]SR141716A displacement, read-out: % Displacement Protocol I

O=C(NCc1ccccc1)c1nn(-c2ccccc2Br)c2c1C1CC3CC(C1)CC2C3 [Example 102, N(7)-Benzyl-5-(2-bromophenyl)-5,6-diazatetracyclo[7.3.1.1^3,11.0^4,8]tetradeca-4(8),6-diene-7-carboxamide]
melting point: 20 °C | inhibition at 0.3 µM (hCB2): 0.74% | inhibition (CB1; [1]): 27.3%

O=C(NN1CCOCC1)c1nn(-c2ccc(Cl)cc2)c2c1C1CC3CC(C1)CC2C3 [Example 103, N(7)-Morpholino-5-(4-chlorophenyl)-5,6-diazatetracyclo[7.3.1.1^3,11.0^4,8]tetradeca-4(8),6-diene-7-carboxamide]
melting point: 220 °C | inhibition at 0.3 µM (hCB2): 6.99% | inhibition (CB1; [1]): 22.2%

O=C(NCC1CCCCC1)c1nn(-c2ccc(Cl)cc2)c2c1C1CC3CC(C1)CC2C3 [Example 108, N(7)-Cyclohexylmethyl-5-(4-chlorophenyl)-5,6-diazatetracyclo[7.3.1.1^3,11.0^4,8]tetradeca-4(8),6-diene-7-carboxamide]
melting point: 117 °C | inhibition at 0.3 µM (hCB2): 37.1% | inhibition (CB1; [1]): 82.5%

O=C(NCc1ccccn1)c1nn(-c2ccc(Cl)cc2)c2c1C1CC3CC(C1)CC2C3 [Example 120, N(7)-(2-Pyridylmethyl)-5-(4-chlorophenyl)-5,6-diazatetracyclo[7.3.1.1^3,11.0^4,8]tetradeca-4(8),6-diene-7-carboxamide]
melting point: 187 °C | inhibition at 0.3 µM (hCB2): 9.18% | inhibition (CB1; [1]): 30.4%

O=C(NN(c1ccc(Cl)cc1Cl)C1CCCCC1)c1nn(-c2ccc(Cl)cc2)c2c1C1CC3CC(C1)CC2C3 [Example 129, N(7)-(2,4-Dichlorophenyl-N′-cyclohexylamino)-5-(4-chlorophenyl)-5,6-diazatetracyclo[7.3.1.1^3,11.0^4,8]tetradeca-4(8),6-diene-7-carboxamide]
melting point: 95 to 96 °C | inhibition at 0.3 µM (hCB2): 62.9% | inhibition (CB1; [1]): 65.2%

O=C(NNc1ccc(F)cc1)c1nn(-c2ccc(Cl)cc2)c2c1C1CC3CC(C1)CC2C3 [Example 130, N(7)-(4-Fluorophenylamino)-5-(4-chlorophenyl)-5,6-diazatetracyclo[7.3.1.1^3,11.0^4,8]tetradeca-4(8),6-diene-7-carboxamide]
melting point: 125 to 127 °C | inhibition (CB1; [1]): 60.6%

O=C(NNc1cccc(F)c1)c1nn(-c2ccc(Cl)cc2)c2c1C1CC3CC(C1)CC2C3 [Example 133, N(7)-(3-fluorophenylamino)-5-(4-chlorophenyl)-5,6-diazatetracyclo[7.3.1.1^3,11.0^4,8]tetradeca-4(8),6-diene-7-carboxamide]
melting point: 203 °C | inhibition (CB1; [1]): 59.7%

O=C(NNc1ccc(Cl)cn1)c1nn(-c2ccc(Cl)cc2)c2c1C1CC3CC(C1)CC2C3 [Example 135, N(7)-(5-Chloro-2-pyridylamino)-5-(4-chlorophenyl)-5,6-diazatetracyclo[7.3.1.1^3,11.0^4,8]tetradeca-4(8),6-diene-7-carboxamide]
melting point: 130 to 135 °C | inhibition at 0.3 µM (hCB2): 6.48% | inhibition (CB1; [1]): 20.5%

Cc1ccc(-n2nc(C(=O)NN3CCCCC3)c3c2C2CC4CC(CC3C4)C2)cc1 [Example 160, N(7)-Piperidino-5-(4-methylphenyl)-5,6-diazatetracyclo[7.3.1.1^3,11.0^4,8]tetradeca-4(8),6-diene-7-carboxamide]
melting point: 228 to 232 °C | inhibition at 0.3 µM (hCB2): 20.8% | inhibition (CB1; [1]): 10%

Cc1ccc(-n2nc(C(=O)NNc3ccc(Cl)cc3Cl)c3c2C2CC4CC(CC3C4)C2)cc1 [Example 161, N(7)-(2,4-Dichlorophenylamino)-5-(4-methylphenyl)-5,6-diazatetracyclo[7.3.1.1^3,11.0^4,8]tetradeca-4(8),6-diene-7-carboxamide]
melting point: 208 to 215 °C | inhibition at 0.3 µM (hCB2): 39.4% | inhibition (CB1; [1]): 27.9%

COc1ccc(-n2nc(C(=O)NCc3ccccc3Cl)c3c2C2CC4CC(CC3C4)C2)cc1 [Example 164, N7-(2-Chlorobenzyl)-5-(4-methoxyphenyl)-5,6-diazatetracyclo[7.3.1.1^3,11.0^4,8]tetradeca-4(8),6-diene-7-carboxamide]
melting point: 178 °C | inhibition at 0.3 µM (hCB2): 13.2% | inhibition (CB1; [1]): 8.2%

COc1ccc(-n2nc(C(=O)NNc3ccc(Cl)cc3Cl)c3c2C2CC4CC(CC3C4)C2)cc1 [Example 165, N(7)-(2,4-Dichlorophenylamino)-5-(4-methoxyphenyl)-5,6-diazatetracyclo[7.3.1.1^3,11.0^4,8]tetradeca-4(8),6-diene-7-carboxamide]
melting point: 199 °C | inhibition at 0.3 µM (hCB2): 45.3% | inhibition (CB1; [1]): 14.2%

O=C(NNc1ccc(Cl)cc1Cl)c1nn(-c2ccccc2)c2c1C1CC3CC(C1)CC2C3 [Example 167, N(7)-[(2,4-Dichlorophenyl)amino]-5-phenyl-5,6-diazatetracyclo[7.3.1.1^3,11.0^4,8]tetradeca-4(8),6-diene-7-carboxamide]
melting point: 166 to 170 °C | inhibition at 0.3 µM (hCB2): 24.6% | inhibition (CB1; [1]): 61.3%

O=C(NNc1ccc(Cl)cc1Cl)c1nn(-c2ccc(Cl)cc2Cl)c2c1C1CC3CC(C1)CC2C3 [Example 175, N(7)-(2,4-Dichlorophenylamino)-5-(2,4-dichlorophenyl)-5,6-diazatetracyclo[7.3.1.1^3,11.0^4,8]tetradeca-4(8),6-diene-7-carboxamide]
melting point: 153 to 156 °C | inhibition at 0.3 µM (hCB2): 18.5% | inhibition (CB1; [1]): 66%

O=C(NNc1ccc(Cl)cc1Cl)c1nn(-c2ccccc2Cl)c2c1C1CC3CC(C1)CC2C3 [Example 181, N(7)-(2,4-Dichlorophenylamino)-5-(2-chlorophenyl)-5,6-diazatetracyclo[7.3.1.1^3,11.0^4,8]tetradeca-4(8),6-diene-7-carboxamide]
melting point: 233 to 240 °C | inhibition (CB1; [1]): 16.4%

O=C(NCc1ccccc1)c1nn(-c2ccccc2)c2c1C1CCC2C1 (stereo not drawn) [Example 203, N(3)-Benzyl-1-phenyl-4,5,6,7-tetrahydro-1H-4,7-methano-indazole-3-carboxamide]
melting point: 115 °C | inhibition (CB1; [1]): -10.4%

COc1ccccc1NC(=O)c1nn(-c2ccc(Cl)cc2)c2c1C1CCC2C1 (stereo not drawn) [Example 218, N(3)-(2-Methoxyphenyl)-1-(4-chlorophenyl)-4,5,6,7-tetrahydro-1H-4,7-methano-indazole-3-carboxamide]
melting point: 149 to 151 °C | inhibition (CB1; [1]): 29.9%

O=C(NCc1ccc(Br)cc1)c1nn(-c2ccc(Cl)cc2)c2c1C1CCC2C1 (stereo not drawn) [Example 225, N(3)-(4-Bromobenzyl)-1-(4-chlorophenyl)-4,5,6,7-tetrahydro-1H-4,7-methano-indazole-3-carboxamide]
melting point: 181 to 183 °C | inhibition (CB1; [1]): 31.1%

O=C(Nc1ccccc1)c1nn(-c2ccc(Cl)cc2Cl)c2c1C1CCC2C1 (stereo not drawn) [Example 243, N(3)-Phenyl-1-(2,4-dichlorophenyl)-4,5,6,7-tetrahydro-1H-4,7-methano-indazole-3-carboxamide]
melting point: 66 to 68 °C | inhibition (CB1; [1]): 23.5%

O=C(NCc1ccccc1Cl)c1nn(-c2ccc(Cl)cc2Cl)c2c1C1CCC2C1 (stereo not drawn) [Example 249, N(3)-(2-Chlorobenzyl)-1-(2,4-dichlorophenyl)-4,5,6,7-tetrahydro-1H-4,7-methano-indazole-3-carboxamide]
melting point: 117 to 120 °C | inhibition (CB1; [1]): 47.7%

O=C(NC1CCCCC1)c1nn(-c2ccc(F)cc2)c2c1C1CCC2C1 (stereo not drawn) [Example 279, N(3)-Cyclohexyl-1-(4-fluorophenyl)-4,5,6,7-tetrahydro-1H-4,7-methano-indazole-3-carboxamide]
melting point: 127 °C | inhibition (CB1; read-out: % Displacement Protocol I, rat brain membrane, [3H]SR141716A displacement): 62%

O=C(NCc1ccccc1)c1nn(-c2ccc(F)cc2)c2c1C1CCC2C1 (stereo not drawn) [Example 280, N(3)-Benzyl-1-(4-fluorophenyl)-4,5,6,7-tetrahydro-1H-4,7-methano-indazole-3-carboxamide]
melting point: 104 °C | inhibition (CB1; [1]): 33%

O=C(NNc1ccccc1)c1nn(-c2ccc(F)cc2F)c2c1C1CCC2C1 (stereo not drawn) [Example 285, N(3)-Phenylamino-1-(2,4-difluorophenyl)-4,5,6,7-tetrahydro-1H-4,7-methano-indazole-3-carboxamide]
melting point: 161 °C | inhibition (CB1; [1]): 61.9%

O=C(NN1CCCCC1)c1nn(-c2ccc(F)cc2F)c2c1C1CCC2C1 (stereo not drawn) [Example 289, N(3)-Piperidino-1-(2,4-difluorophenyl)-4,5,6,7-tetrahydro-1H-4,7-methano-indazole-3-carboxamide]
melting point: 143 °C | inhibition (CB1; [1]): 71.3%
